Assay results from patent publication US7273866B2, “2-aryl thiazole derivatives as KCNQ modulators” (Bristol-Myers Squibb Company, priority 2002, dated 2007).

System: peripheral mononeuropathy nerve injury-induced tactile allodynia
Assay: Chung model of neuropathic pain (Chung surgery and von Frey test)
Type: in vivo, Sprague Dawley rats
Details: 100 mg/kg, i.v.; von Frey thresholds over 90 min, rat
Experimental: Chung model of neuropathic pain (Chung surgery and von Frey test). To test agents for activity against peripheral mononeuropathy nerve injury-induced tactile allodynia, male Sprague Dawley rats (wt. 120-160 g) were surgically prepared with unilateral tight ligation of spinal nerves L5 and L6 following the method of Kim and Chung (Kim S. H., Chung J. M. (1992) Pain, September; 50(3):355-63). After 3-4 weeks recovery, paw withdrawal to light touch was assessed as described by Chaplan et al. (Chaplan S. R., et al., (1994) J. Neurosci Methods, July; 53(1):55-63). […] After acclimation, baseline von Frey thresholds were assessed for the injured hindpaw at −15 min. […] Following drug administration, von Frey thresholds were measured at 15, 30, 60 and 90 min. Data were analyzed by a 2-way repeated measures analysis of variance followed by Dunnett's test (p<0.05). […]
Reversal of neuropathic pain behavior may be expressed as a percentage (0-100%) of the maximum possible effect, over and above the vehicle effects. […]
For example, a compound which immediately reversed neuropathic pain behavior to normal levels, such that animals only responded to the highest von Frey filament (15 g), and maintained normal levels through out the post-drug testing period (90 min) would be calculated as Δ% MPE=100%.

Question: For NCC1(CC(=O)O)CCCCC1 [Gabapentin, gabapentin, reference compound], which “AUC (Δ % MPE)” value is on record?
Answer: 50 (100 mg/kg, i.v.) Δ % MPE
